Entries after “also recorded” stand apart in the source; their conditions may differ. Like-named read-outs stand apart in the source and are kept apart here.
Columns and labels:
rat brain FTase = molecular target: T1, rat brain FTase (Rattus norvegicus, UniProt Q02293); experiment: Inhibition of rat brain FTase purified to homogeneity; format: biochemical
T1 construct: 50 nM towards rat brain FTase purified to homogeneity; from tissue; host or cells: rat brain

FTase [1] = molecular target: T2, FTase (Homo sapiens, UniProt P49356); experiment: FTase activity assay: transfer of [3H]farnesyl from FPP to recombinant H-Ras-CVLS, Daudi 60,000xg supernatant; format: biochemical
T2 construct: FTase and GGTase I activities from 60,000×g supernatants of human Burkitt lymphoma (Daudi) cells; endogenous in cells; host or cells: human Burkitt lymphoma (Daudi) cells, 60,000xg supernatant (partially purified)
Protocol: FTase and GGTase I activities from 60,000×g supernatants of human Burkitt lymphoma (Daudi) cells (ATCC, Rockville, Md., USA) were assayed as described previously for FTase (41). Briefly, 100 μg of the supernatant was incubated in 50 mM Tris, pH 7.5, 50 μM ZnCl2, 20 mM KCl and 1 mM dithiothreitol (DTT).
Human Burkitt lymphoma (Daudi) cells (ATCC, Rockville, Md.) were grown in suspension in RPMI 1640 medium containing 10% fetal bovine serum (FBS) and 1% Pen-Strep in a humidified 10% CO2 incubator at 37° C. The cells were harvested and sonicated in 50 mM Tris, pH 7.5, 1 mM EDTA, 1 mM EGTA, 25 μg/ml leupeptin, 1 mM phenylmethylsulfonyl fluoride. Homogenates were then spun at 12,000×g and the resulting supernatant further spun at 60,000×g. The supernatant was assayed for both FTase and GGTase I. Briefly, 100 μg of the supernatants was incubated in 50 mM Tris, pH 7.5, 50 μM ZnCl2, 20 mM KCl, 3 mM MgCl2 and 1 mM DTT. […] FPP (625 nM; 16.3 Ci/mmol). For GGTase assays, the reaction was also incubated for 30 minutes at 37° C. but with recombinant H-Ras-CVLL (5 μM) and [^3 H] GGPP (525 nM; 19.0 Ci/mmol). The reaction was stopped and passed through glass fiber filters to separate free and incorporated label. For inhibition studies, the peptidomimetics were premixed with FTase or GGTase I prior to adding the remainder of the reaction mixture. […] Recombinant H-Ras-CVLL was prepared from bacteria (32).
FTase and GGTase I activities from 60,000×g supernatants of human Burkitt lymphoma (Daudi) cells (ATCC, Rockville, Md.) were assayed exactly as described previously for FTase (41).

GGTase I = molecular target: T3, GGTase I (Homo sapiens, UniProt P53609); experiment: GGTase I activity assay: transfer of [3H]geranylgeranyl to recombinant H-Ras-CVLL, Daudi 60,000xg supernatant; format: biochemical
T3 construct: FTase and GGTase I activities from 60,000×g supernatants of human Burkitt lymphoma (Daudi) cells; endogenous in cells; host or cells: human Burkitt lymphoma (Daudi) cells, 60,000xg supernatant (partially purified)

Ras processing = Ras processing assay in EJ3 / Ras transformed 3T3 cells (FIG. 16A); format: cell-based
Protocol: EJ3 cells were treated with peptidomimetics or vehicle for 20-24 h. Cells were lysed in lysis buffer (10 mM Na2 HPO4, pH 7.25, 150 mM NaCl, 0.1% sodium dodecyl sulfate, 1% Triton X-100, 12 mM sodium deoxycholate, 1 mM NaF, 0.2% NaN3, 2 mM PMSF, 25 μg/ml leupeptin) and the lysates were cleared by spinning at 13,000 rpm for 15 minutes. Ras protein was immunoprecipitated overnight at 4° C. with 50 μg of anti-Ras antibody (Y13-259; hybridoma from ATCC, Rockville, Md.) along with 30 μl Protein A-agarose goat anti-rat IgG complex (oncogene Science, Uniondale, N.Y.). Immunoprecipitates were washed 4 times with lysis buffer and the bound proteins were released by heating for 5 minutes in 40 μl SDS-PAGE sample buffer and subsequently electrophoresed on a 12.5% SDS-PAGE.

Rap1A processing = Rap1A processing assay in EJ3 / Ras transformed 3T3 cells (FIG. 16B); format: cell-based
Protocol: For Rap1A processing assays, 50 μg of cell lysates were electrophoresed as described above for Ras processing and transferred to nitrocellulose. These membranes were then blocked with 5% milk in Tris-buffered saline, pH 8.0, containing 0.5% Tween-20 and probed with anti-Rap1A (1 μg/ml in 5% milk/TBS-T; Santa Cruz Biotechnology, Santa Cruz, Calif.). Antibody reactions were visualized using peroxidase-conjugated goat anti-rabbit IgG (Oncogene) and ECL chemiluminescence as described above.

FTase [2] = molecular target: T2, FTase; experiment: Peptidomimetics farnesylation assay (silica gel TLC); format: biochemical
Protocol: The ability of human Burkitt lymphoma (Daudi) FTase to farnesylate peptides and peptidomimetics was determined as described previously (34, 35). Briefly, 25 μl of reaction mixture containing 50 μg of 60,000×g supernatants and 20 μM peptidomimetic in 50 mM Tris, pH 7.5, 50 μM ZnCl2, 20 mM KCl, 3 mM MgCl2, 1 mM DTT and 0.2% octylβ-D-glucoside was incubated for 30 minutes at 37° C., then spotted onto silica gel G TLC sheets (20×20 cm, Brinkmann Instruments), and developed with n-propanol/5 N ammonium hydroxide/water (6:1:1). The dried sheets were sprayed with En^3 Hance (DuPont NEN) and exposed to x-ray film for detection of [^3 H] farnesylated products.

FTase [3] = conditions: published; cited from earlier work

T2 sequence (P49356 whole entry): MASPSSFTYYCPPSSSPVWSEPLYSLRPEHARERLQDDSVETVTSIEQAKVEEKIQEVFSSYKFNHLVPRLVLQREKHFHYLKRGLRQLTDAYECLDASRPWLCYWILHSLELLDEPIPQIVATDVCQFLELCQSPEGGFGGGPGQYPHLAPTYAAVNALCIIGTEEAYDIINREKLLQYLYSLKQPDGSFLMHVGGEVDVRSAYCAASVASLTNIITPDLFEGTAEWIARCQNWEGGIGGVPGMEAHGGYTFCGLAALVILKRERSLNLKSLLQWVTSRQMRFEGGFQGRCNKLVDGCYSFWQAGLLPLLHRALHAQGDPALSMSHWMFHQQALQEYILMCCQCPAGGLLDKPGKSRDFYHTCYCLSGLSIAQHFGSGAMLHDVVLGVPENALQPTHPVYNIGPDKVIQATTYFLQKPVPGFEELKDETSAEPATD
T3 sequence (P53609 whole entry): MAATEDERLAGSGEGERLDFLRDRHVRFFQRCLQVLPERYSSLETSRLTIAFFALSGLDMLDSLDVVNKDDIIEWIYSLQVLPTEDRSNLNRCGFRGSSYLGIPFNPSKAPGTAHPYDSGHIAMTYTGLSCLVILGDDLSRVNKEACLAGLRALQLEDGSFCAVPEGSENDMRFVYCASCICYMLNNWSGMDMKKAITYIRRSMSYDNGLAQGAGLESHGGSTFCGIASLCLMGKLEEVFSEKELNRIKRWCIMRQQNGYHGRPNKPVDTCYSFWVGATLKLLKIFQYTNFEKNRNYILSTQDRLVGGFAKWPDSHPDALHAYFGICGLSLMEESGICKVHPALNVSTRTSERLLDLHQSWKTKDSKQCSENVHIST

IC50 (rat brain FTase)	selectivity for FTase over GGTase I (FTase [1])	Selectivity (FTase [1]; Table 4, FTase over GGTase I)	IC50 (FTase [1]; Table 4, read-out: FTase IC50)	IC50 (GGTase I; Table 4, read-out: GGTase-I IC50)	IC50 (GGTase I; read-out: GGTase I IC50)	Substrate (FTase [2]; Table 4, substrate for farnesylation, TLC)	Compound	lowest concentration that inhibited Ras processing (Ras processing)	inhibition of Ras processing (Ras processing; 100 μM)	inhibition of Rap1A processing (Rap1A processing)	farnesylation by FTase (FTase [2]; FIG. 15, listed as 4)	IC50 (FTase [3])
50 nM	877 fold	877	114 nM	100000 nM	100000 nM	no	N[C@@H](CS)CNc1ccc(-c2cccc(C(=O)O)c2)cc1 [FTI-265, 4-N-[2(R)-amino-3-mercaptopropyl]amino-3'-carboxybiphenyl]	50 µM	potently inhibit Ras processing	not able to inhibit Rap1A geranylgeranylation	prevented farnesylation; also recorded: not substrates for farnesylation	–
–	–	–	–	–	–	–	Cys-Ile-Phe-Met (CIFM; printed: Cys-Ile-Phe-Met)	–	–	–	–	30 nM

From patent US5965539A, “Inhibitors of prenyl transferases” (Univeristy of Pittsburgh, priority 1996, dated 1999)
